Laboratory results taken from patent publication US20150297629A1, “MODULATION OF RENIN-ANGIOTENSIN SYSTEM (RAS) RELATED DISEASES BY ANGIOTENSINOGEN” (Isis Pharmaceuticals, Inc,, priority 2012, published 2015).

How the values were obtained:
female SHR rats = assay: Blood pressure by tail-cuff method in female SHR rats with subsequent Captopril, Study 2; assay type: in vivo, Spontaneously hypertensive (SHR) rats; conditions: Captopril 50 mg/kg/day for 4 days, no ASO
Protocol: A control group of female SHR rats was injected with phosphate buffered saline (PBS) administered weekly for 2 weeks. Another control group constituted a group of wild-type rats injected with phosphate buffered saline (PBS) administered weekly for 2 weeks. […] Systolic blood pressure (SBP), mean arterial pressure (MAP), and diastolic blood pressure (DBP) in the rats was measured by the tail-cuff volume-pressure method (Kent Scientific, Torrington, Conn.).

SHR [1] = assay: Mean arterial pressure by tail-cuff method in SHR, Study 3; assay type: in vivo, Spontaneously hypertensive (SHR) rats; conditions: ISIS 552668 and control oligonucleotide 100 mg/kg/week, Captopril 150 mg/kg/day
Protocol: A control group of SHR was injected with phosphate buffered saline (PBS) administered weekly for 3 weeks. Another control group of SHR was injected with 100 mg/kg/week of a control oligonucleotide (a nucleotide not targeted to angiotensinogen) administered for 3 weeks. […] Mean arterial pressure (MAP) in the rats was measured by the tail-cuff volume-pressure method (Kent Scientific, Torrington, Conn.).

angiotensinogen mRNA = assay: Real-time PCR of angiotensinogen mRNA in SHR tissues, Study 3; assay type: in vivo, Spontaneously hypertensive (SHR) rats; conditions: 3 weeks, oligonucleotides 100 mg/kg/week, Captopril 150 mg/kg/day
Protocol: (§1) A group of SHR was injected with 100 mg/kg/week of ISIS 552668 administered for 3 weeks. A control group of SHR was injected with phosphate buffered saline (PBS) administered weekly for 3 weeks. Another control group of SHR was injected with 100 mg/kg/week of a control oligonucleotide (a nucleotide not targeted to angiotensinogen) administered for 3 weeks.
[…] The mRNA levels were normalized using the housekeeping gene, GAPDH. […] Results are presented as percent inhibition of angiotensinogen, relative to control.

renin mRNA = assay: Real-time PCR of kidney renin mRNA in SHR, Study 3; assay type: in vivo, Spontaneously hypertensive (SHR) rats; conditions: 3 weeks
Protocol: A control group of SHR was injected with phosphate buffered saline (PBS) administered weekly for 3 weeks. Another control group of SHR was injected with 100 mg/kg/week of a control oligonucleotide (a nucleotide not targeted to angiotensinogen) administered for 3 weeks. […] RNA was extracted from kidney tissue for real-time PCR analysis of renin, using primer probe set rRenin2 (forward sequence [NT], designated herein as SEQ ID NO: 21; reverse sequence [NT], designated herein as SEQ ID NO: 22; probe sequence [NT], designated herein as SEQ ID NO: 23). The mRNA levels were normalized using the housekeeping gene, GAPDH. […] Increase in renin in the body is deleterious to the overall health of the animal (Nguyen and Muller, The Biology of the (Pro)Renin Receptor, J Am Soc Nephrol, 2010 January, 21(1):18-23). […] Results are presented as percent expression of renin, relative to control.

angiotensinogen protein = assay: ELISA of angiotensinogen plasma levels in SHR, Study 3; assay type: in vivo, Spontaneously hypertensive (SHR) rats; conditions: 3 weeks, oligonucleotides 100 mg/kg/week, Captopril 150 mg/kg/day
Protocol: as §1
Angiotensinogen plasma levels were measured by ELISA (IBL International, Toronto, Canada). […] Results are presented as percent inhibition of angiotensinogen, relative to PBS control.

SHR [2] = assay: Systolic blood pressure by tail-cuff method in SHR before and after ISIS 552668 added to chronic Captopril, Study 4; assay type: in vivo, Spontaneously hypertensive (SHR) rats; conditions: for Blood pressure (SBP), After ISIS 552668 dosing: then 50 mg/kg ISIS 552668 added
Dahl/SS rats = assay: Blood pressure by tail-cuff method in Dahl/SS rats; assay type: in vivo, Dahl/Salt Sensititive (Dahl/SS) rats; conditions: female Dahl/SS rats, 8% NaCl diet; 3 weeks; ISIS oligonucleotides 40 mg/kg/week, Captopril 150 mg/kg daily
Protocol: The rats were fed a diet with 8% NaCl. A group of female Dahl/SS rats was injected with 40 mg/kg/week of ISIS 552668 administered for 3 weeks. A group of female Dahl/SS rats was injected with 40 mg/kg/week of control oligonucleotides ISIS 141923 administered for 3 weeks. […] A control group of female Dahl/SS rats was injected with phosphate buffered saline (PBS) administered weekly for 3 weeks. Another control group constituted a group of Dahl/Salt Resistant (Dahl/SR) rats injected with phosphate buffered saline (PBS) administered weekly for 3 weeks.
Systolic blood pressure (SBP), mean arterial pressure (MAP), and diastolic blood pressure (DBP) in the rats was measured by the tail-cuff volume-pressure method (Kent Scientific). The results are presented in Table 12, expressed as the percent decrease in blood pressure compared to the control SHR group.

[3] = Captopril 25 mg/kg/day for 10 weeks
[4] = Captopril 50 mg/kg/day for 10 weeks
[5] = Captopril 100 mg/kg/day for 10 weeks

For `C[C@H](CS)C(=O)N1CCC[C@H]1C(=O)O` [Captopril, reference compound], the DBP (female SHR rats) was 97 mm Hg, the MAP (female SHR rats) was 113 mm Hg and the SBP (female SHR rats) was 145 mm Hg. For the same compound, the “MAP, Week 1” value (SHR [1]) was 107 mm Hg, the “MAP, Week 2” value (SHR [1]) was 109 mm Hg and the “MAP, Week 3” value (SHR [1]) was 112 mm Hg. The “Percent inhibition of angiotensinogen mRNA compared to the PBS control, Heart” value (angiotensinogen mRNA) was 0%, the “Percent inhibition of angiotensinogen mRNA compared to the PBS control, Kidney” value (angiotensinogen mRNA) was 41% and the “Percent inhibition of angiotensinogen mRNA compared to the PBS control, Liver” value (angiotensinogen mRNA) was 0%. For the same compound, the “Induction of kidney renin expression compared to that with ISIS 552668” value (renin mRNA; Captopril 150 mg/kg/day versus ISIS 552668 100 mg/kg/week) was “about three-fold”, the “Percent increase of kidney renin mRNA” value (renin mRNA; oligonucleotides 100 mg/kg/week, Captopril 150 mg/kg/day, PBS = 100) was 1110% and the “Percent inhibition of angiotensinogen protein in the plasma compared to the PBS control” value (angiotensinogen protein) was 24%. For the same compound, the “Blood pressure (SBP), Before ISIS 552668 dosing” value (SHR [2]; [3]) was 159, the “Blood pressure (SBP), After ISIS 552668 dosing” value (SHR [2]; [3]) was 153 and the “Blood pressure (SBP), Before ISIS 552668 dosing” value (SHR [2]; [4]) was 147. For the same compound, the “Blood pressure (SBP), After ISIS 552668 dosing” value (SHR [2]; [4]) was 133, the “Blood pressure (SBP), Before ISIS 552668 dosing” value (SHR [2]; [5]) was 137 and the “Blood pressure (SBP), After ISIS 552668 dosing” value (SHR [2]; [5]) was 127. The “Blood pressure (SBP), Before ISIS 552668 dosing” value (SHR [2]; Captopril 200 mg/kg/day for 10 weeks) was 135, the DBP (Dahl/SS rats) was 111 mm Hg and the MAP (Dahl/SS rats) was 128 mm Hg. For the same compound, the SBP (Dahl/SS rats) was 162 mm Hg.
